The test system of one data set is HCT-116 cell line. Nature of the data set: MTT assay, HCT-116 cell line. The format is cell-based, human. To be noted: for Cytotoxicity at 5 µg/l: HCT116, 5 µg/l; for Cytotoxicity at 5 µg/l / Cytotoxicity at 10 µg/l / Cytotoxicity at 20 µg/l: MTT, 24 hr treatment, in % (unit assumed); for Cytotoxicity at 10 µg/l: HCT116, 10 µg/l; for Cytotoxicity at 20 µg/l: HCT116, 20 µg/l; for IC50: Homo sapiens, HCT-116, HCT116, MTT, read-out: IC50 (drug concentration that inhibited 50% of cell proliferation). A digest of the protocol:
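Cells in RPMI-1640 with 10% FBS were seeded at 1.0x10^4 cells/well and cultured 48 h, then exposed to compound for 24 hr. Viability was measured by MTT reduction (4 hr), with formazan dissolved in DMSO and read at 570 nm, relative to untreated cells. Values are means of three independent triplicate experiments.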

For another data set, the system named is HepG2 cells. Nature of the data set: Annexin V-FITC apoptosis assay. The format is cell-based, human. To be noted: for Apoptosis Early / Apoptosis Late / Necrosis: HepG2, 48 h, Annexin V-FITC/PI; for increase of early apoptosis ratio / increase of late apoptosis rate: HepG2, compared with untreated control cells. Here is the method: HepG-2 cells were harvested and incubated with compounds 7b, 15b, 16a and 16c separately for 48 h. Then, the cells were collected and washed with PBS two successive times followed by centrifugation. After that, the cells were treated with Annexin V-FITC and propidium iodide (PI) using the apoptosis detection kit (BD Biosciences and Annexin V-FITC and PI binding were analyzed by a flow cytometer.
Early and late apoptosis was determined after treatment of HepG2 cells with compounds 7b, 15b, 16a and 16c compared with untreated control cells. The late apoptosis rate increased by about 13, 20, 4 and 3 times, respectively, showing a higher efficiency than the early apoptosis ratio 5, 2, 8 and 6 times, respectively.
As mentioned above, HepG-2 cells were collected and incubated separately with compounds 7b, 15b, 16a and 16c for 48 hr. Cells were then collected and washed twice consecutively with PBS and centrifuged. After that, the cells were treated with Annexin V-FITC and propidium iodide (PI) using an apoptosis detection kit (BD Biosciences, San Jose, CA) according to the manufacturer's instructions. The biding of Annexin V-FITC and PI was analyzed by ﬂow cytometer.

Data set [1] has as its target T1, Tropomyosin receptor kinase A (TrKA) (Homo sapiens, UniProt P04629).
T1 construct: purchased
Put plainly: Tropomyosin receptor kinase A (TrKA) inhibitory assay (Kinase-Glo MAX kit). To be noted: in vitro kinase assay, recombinant TrkA. The format is biochemical. From the text: The TrkA assay Kit is designed to measure TrkA activity for screening and profiling applications using Kinase-Glo® MAX as a detection reagent. The TrkA Assay Kit comes in a convenient 96-well format, with enough purified recombinant TrkA enzyme, TrkA substrate, ATP and kinase assay buffer for 100 enzyme reactions. The method was discussed in details in the ESI.
The TrkA assay Kit is designed to measure TrkA activity for screening and profiling applications using Kinase-Glo® MAX as a detection reagent. The TrkA Assay Kit comes in a convenient 96-well format, with enough purified recombinant TrkA enzyme, TrkA substrate, ATP and kinase assay buffer for 100 enzyme reactions.
The assay protocol: all samples and controls should be tested in duplicate. Dissolve 5x Kinase Assay Buffer 1, ATP, and PTK Substrate Poly (Glu:Tyr 4:1) (10 mg/ml). 2). The master mixture (25 μl per well) was prepared by N wells x (6 μl 5x Kinase Assay Buffer 1 + 1 μl ATP (500 μM) + 1 μl PTK Substrate Poly (Glu:Tyr 4:1) (10mg/ml) + 17 μl water). Add 5 μl of Inhibitor solution of each well labeled as “Test Inhibitor”. For the “Positive Control" and “Blank”, add 5 μl of the same solution without inhibitor (Inhibitor buffer). Prepare 3 ml of 1x Kinase assay buffer 1 by mixing 600 μl of 5x Kinase assay buffer 1 with 2400 μl water 3 ml of 1x Kinase assay buffer is sufficient for 100 reactions. To the wells designated as "Blank", add 20 μl of 1x Kinase assay buffer 1and thaw TrkA enzyme on ice. Upon first thaw, briefly spin tube containing enzyme to recover full content of the tube. Calculate the amount of TrkA required for the assay and dilute enzyme to 5 ng/μl with 1x Kinase assay buffer. Store remaining undiluted enzyme in aliquots at -80°C. Then initiate reaction by adding 20 μl of diluted TrkA enzyme to the wells designated “Positive Control” and "Test Inhibitor Control". Incubate at 30°C for 45minutes and thaw Kinase-Glo Max reagent. After the 45 minute reaction, add 50 μl of Kinase-Glo Max reagent to each well. Cover plate with aluminum foil and incubate the plate at room temperature for 15 minutes. Immediately read sample in a luminometer or microtiter-plate capable of reading chemiluminescence. “Blank” value is subtracted from all readings.

Converted amounts (≈) assume the structure as drawn.

T1 sequence (P04629 33-796): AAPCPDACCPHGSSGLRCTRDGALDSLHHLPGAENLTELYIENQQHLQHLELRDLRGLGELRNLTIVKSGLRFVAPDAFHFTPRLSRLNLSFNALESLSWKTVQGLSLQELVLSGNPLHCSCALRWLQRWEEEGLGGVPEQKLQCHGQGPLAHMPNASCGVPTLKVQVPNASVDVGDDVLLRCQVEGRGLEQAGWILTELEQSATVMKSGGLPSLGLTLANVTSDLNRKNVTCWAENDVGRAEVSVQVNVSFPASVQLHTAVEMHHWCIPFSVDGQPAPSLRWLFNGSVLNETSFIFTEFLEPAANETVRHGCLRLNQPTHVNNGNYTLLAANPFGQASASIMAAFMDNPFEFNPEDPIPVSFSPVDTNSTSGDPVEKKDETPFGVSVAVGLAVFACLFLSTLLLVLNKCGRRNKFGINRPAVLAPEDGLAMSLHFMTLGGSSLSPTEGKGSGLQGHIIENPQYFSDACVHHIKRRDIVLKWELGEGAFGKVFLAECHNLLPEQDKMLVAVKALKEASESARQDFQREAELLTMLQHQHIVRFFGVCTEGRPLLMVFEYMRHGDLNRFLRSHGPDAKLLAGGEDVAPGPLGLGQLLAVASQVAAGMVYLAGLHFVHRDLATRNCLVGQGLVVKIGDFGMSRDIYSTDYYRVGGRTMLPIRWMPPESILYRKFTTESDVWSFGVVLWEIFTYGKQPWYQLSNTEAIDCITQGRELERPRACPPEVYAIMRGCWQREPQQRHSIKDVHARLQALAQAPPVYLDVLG

Take `COc1ccc(NN=C2C(=O)NC(=O)c3c2nn2c(O)cc(C)nc32)cc1` [Compound 16c, 4-Hydroxy-7-(2-(4-methoxyphenyl)hydrazono)-2-methylpyrido[4ʹ,3ʹ:3,4]pyrazolo[1,5-a]pyrimidine-8,10(7H,9H)-dione]: in the data set on HCT-116 cell line, the “Cytotoxicity at 5 µg/l” value came out at 55.98, the “Cytotoxicity at 10 µg/l” value came to 78.34, the “Cytotoxicity at 20 µg/l” value was 99.23 and the IC50 is 4.5 ng/mL (≈ 0.0123 µM). Besides, in the data set on HepG2 cells, the “Apoptosis Early” value turned out to be 6.31%, the “Apoptosis Late” value worked out at 3.20%, the Necrosis stood at 2.56% and the “increase of early apoptosis ratio” value is recorded as 6 times. In addition, in the data set on HepG2 cells, the “increase of late apoptosis rate” value was about 3 times. Besides, the IC50 in data set [1] was 128 nM.

On to `COc1ccc(C=C2C(=O)NC(=O)c3c2nn2c(C)cc(C)nc32)cc1` [Compound 7b], for which, in the data set with HCT-116 cell line, the “Cytotoxicity at 5 µg/l” value amounted to 67.87, the “Cytotoxicity at 10 µg/l” value is reported as 70.12, the “Cytotoxicity at 20 µg/l” value turned out to be 91.94 and the IC50 was found to be 2.49 ng/mL (≈ 0.00714 µM). Also, in the data set with HepG2 cells, the “Apoptosis Early” value is given as 5.71%, the “Apoptosis Late” value stood at 13.72%, the Necrosis came to 5.46% and the “increase of early apoptosis ratio” value is 5 times. Also, the “increase of late apoptosis rate” value in the data set with HepG2 cells is on record as “about 13 times”. Further, the apoptosis-inducing effect with HepG2 cells (HepG2, as stated in the abstract) is on record as 34.70%. The IC50 in data set [1] is 184 nM.

With `Cc1cc(O)n2nc3c(c2n1)C(=O)NC(=O)C3=NNc1ccccc1` [Compound 16a, 4-Hydroxy-2-methyl-7-(2-phenylhydrazono)pyrido[4ʹ,3ʹ:3,4]pyrazolo[1,5-a]pyrimid-ine-8,10(7H,9H)-dione], in the data set with HCT-116 cell line, the “Cytotoxicity at 5 µg/l” value was 54.16, the “Cytotoxicity at 10 µg/l” value worked out at 74.90, the “Cytotoxicity at 20 µg/l” value was 87.26 and the IC50 is 4.37 ng/mL (≈ 0.013 µM). Further, in the data set with HepG2 cells, the “Apoptosis Early” value was 8.26%, the “Apoptosis Late” value is 4.32%, the Necrosis came to 2.75% and the “increase of early apoptosis ratio” value came out at 8 times. In addition, the “increase of late apoptosis rate” value in the data set with HepG2 cells is on record as about 4 times. Also, in data set [1], the IC50 was 214 nM.

Source of the values: PMC10999085, “Synthesis, anticancer evaluation, molecular docking and ADME study of novel pyrido[4ʹ,3ʹ:3,4]pyrazolo[1,5-a]pyrimidines as potential tropomyosin receptor kinase A (TrKA) inhibitors” (BMC Chemistry, 2024).
